Counter-ions that a name gives are not always drawn.
Biological target: glutaminyl cyclase (QC, QPCT) (Homo sapiens, UniProt Q16769)
Assay: glutamic dehydrogenase-coupled assay, NADH absorbance at […] nm
Format: biochemical

glutaminyl cyclase (QC, QPCT), sequence (Q16769 33-361): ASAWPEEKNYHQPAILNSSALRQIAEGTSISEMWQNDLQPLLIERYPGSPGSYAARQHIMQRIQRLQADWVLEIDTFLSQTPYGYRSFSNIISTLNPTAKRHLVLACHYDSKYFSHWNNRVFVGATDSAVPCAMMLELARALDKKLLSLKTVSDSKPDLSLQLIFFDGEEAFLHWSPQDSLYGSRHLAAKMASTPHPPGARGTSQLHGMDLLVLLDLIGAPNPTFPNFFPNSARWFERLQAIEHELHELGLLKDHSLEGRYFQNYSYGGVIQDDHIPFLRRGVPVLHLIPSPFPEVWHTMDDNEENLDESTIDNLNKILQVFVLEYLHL

Compound | Ki
O=C(/C=C/c1cccc(S(=O)(=O)Nc2ccccc2)c1)NO [Belinostat (PXD101)] | 2.98 ± 0.67 mM
CC[C@@H]1C(=O)OC[C@@H]1Cc1cncn1C [Pilocarpine HCl] | 13.2 ± 7.27 mM
Cc1cnc(C(=O)O)c[n+]1[O-] [Acipimox] | 6.23 ± 0.85 mM
Cc1cccc(Cc2c[nH]cn2)c1C [Detomidine HCl] | 2.58 ± 0.28 mM

Source: publication PMC8409088 (ChemistryOpen, 2020)
